Measured values as given in patent US12304890B2, “R-type pyridyloxycarboxylic acid, salt and ester derivative thereof, and preparation method therefor, and herbicidal composition and application thereof” (Qingdao Kingagroot Chemical Compound Co., Ltd., priority 2018, dated 2025).

Tested on: Monocotyledonous and dicotyledonous weed seeds and main crop seeds
Assay: Post-emergence test experiment, other weeds and crops (Table 4, 1000 g a.i./ha)
Assay type: in vivo
Conditions: 3 weeks in greenhouse, fresh weight inhibition
Procedure: The above described growth inhibition rate is fresh weight inhibition rate.
Post-emergence test experiment: Monocotyledonous and dicotyledonous weed seeds and main crop seeds (i. e. wheat, corn, rice, soybean, cotton, oilseed, millet and sorghum.) were put into a plastic pot loaded with soil. Then covered with 0.5-2 cm soil, the seeds were allowed to grow in good greenhouse environment. The test plants were treated at 2-3 leaf stage 2 weeks after sowing. The test compounds of the invention were dissolved with acetone respectively, then added with tween-80, and using 1.5 liters per hectare of an emulsible concentrate of methyl oleate as a synergist, and diluted by certain amount of water to certain concentration. The solution was sprayed to the plants with a sprayer.

SMILES	Activity level (growth inhibition rate), Abutilon theophrasti Medic.	Activity level (growth inhibition rate), Galium aparine	Activity level (growth inhibition rate), Monochoria Vaginalis
COC(=O)C(CF)Oc1nc(F)c(Cl)c(N)c1Cl (stereo not drawn) [Compound 2-43]	5 (Level 5: the growth inhibition rate is greater than 85%)	5 (Level 5: the growth inhibition rate is greater than 85%)	5 (Level 5: the growth inhibition rate is greater than 85%)
COC(=O)C(Oc1nc(F)c(Cl)c(N)c1Cl)C(F)F (stereo not drawn) [Compound 2-44]	5 (Level 5: the growth inhibition rate is greater than 85%)	5 (Level 5: the growth inhibition rate is greater than 85%)	5 (Level 5: the growth inhibition rate is greater than 85%)
C=C[C@@H](Oc1nc(F)c(Cl)c(N)c1Cl)C(=O)OC [Compound 2-45]	5 (Level 5: the growth inhibition rate is greater than 85%)	5 (Level 5: the growth inhibition rate is greater than 85%)	5 (Level 5: the growth inhibition rate is greater than 85%)
C#CC(Oc1nc(F)c(Cl)c(N)c1Cl)C(=O)OC (stereo not drawn) [Compound 2-46]	5 (Level 5: the growth inhibition rate is greater than 85%)	5 (Level 5: the growth inhibition rate is greater than 85%)	5 (Level 5: the growth inhibition rate is greater than 85%)
COC(=O)C(Oc1nc(F)c(Cl)c(N)c1Cl)C(=O)OC [Compound 2-47]	5 (Level 5: the growth inhibition rate is greater than 85%)	5 (Level 5: the growth inhibition rate is greater than 85%)	5 (Level 5: the growth inhibition rate is greater than 85%)
COC(=O)C(C=O)Oc1nc(F)c(Cl)c(N)c1Cl (stereo not drawn) [Compound 2-48]	5 (Level 5: the growth inhibition rate is greater than 85%)	5 (Level 5: the growth inhibition rate is greater than 85%)	5 (Level 5: the growth inhibition rate is greater than 85%)
COC(=O)C(CO)Oc1nc(F)c(Cl)c(N)c1Cl (stereo not drawn) [Compound 2-49]	5 (Level 5: the growth inhibition rate is greater than 85%)	5 (Level 5: the growth inhibition rate is greater than 85%)	5 (Level 5: the growth inhibition rate is greater than 85%)
COC(=O)C(Oc1nc(F)c(Cl)c(N)c1Cl)[N+](=O)[O-] (stereo not drawn) [Compound 2-50]	5 (Level 5: the growth inhibition rate is greater than 85%)	5 (Level 5: the growth inhibition rate is greater than 85%)	5 (Level 5: the growth inhibition rate is greater than 85%)
COC(=O)C(F)Oc1nc(F)c(Cl)c(N)c1Cl (stereo not drawn) [Compound 2-51]	5 (Level 5: the growth inhibition rate is greater than 85%)	5 (Level 5: the growth inhibition rate is greater than 85%)	5 (Level 5: the growth inhibition rate is greater than 85%)
COC(=O)C(Br)Oc1nc(F)c(Cl)c(N)c1Cl (stereo not drawn) [Compound 2-52]	5 (Level 5: the growth inhibition rate is greater than 85%)	5 (Level 5: the growth inhibition rate is greater than 85%)	5 (Level 5: the growth inhibition rate is greater than 85%)
COC(=O)C(Cl)Oc1nc(F)c(Cl)c(N)c1Cl (stereo not drawn) [Compound 2-53]	5 (Level 5: the growth inhibition rate is greater than 85%)	5 (Level 5: the growth inhibition rate is greater than 85%)	5 (Level 5: the growth inhibition rate is greater than 85%)
COC(=O)C(N)Oc1nc(F)c(Cl)c(N)c1Cl (stereo not drawn) [Compound 2-56]	5 (Level 5: the growth inhibition rate is greater than 85%)	5 (Level 5: the growth inhibition rate is greater than 85%)	5 (Level 5: the growth inhibition rate is greater than 85%)
COC(=O)C(Oc1nc(F)c(Cl)c(N)c1Cl)SC (stereo not drawn) [Compound 2-57]	5 (Level 5: the growth inhibition rate is greater than 85%)	5 (Level 5: the growth inhibition rate is greater than 85%)	5 (Level 5: the growth inhibition rate is greater than 85%)
COC(=O)C(OC)Oc1nc(F)c(Cl)c(N)c1Cl (stereo not drawn) [Compound 2-58]	5 (Level 5: the growth inhibition rate is greater than 85%)	5 (Level 5: the growth inhibition rate is greater than 85%)	5 (Level 5: the growth inhibition rate is greater than 85%)
COC(=O)C(CN(C)C)Oc1nc(F)c(Cl)c(N)c1Cl (stereo not drawn) [Compound 2-59]	5 (Level 5: the growth inhibition rate is greater than 85%)	5 (Level 5: the growth inhibition rate is greater than 85%)	5 (Level 5: the growth inhibition rate is greater than 85%)
COC(=O)C(CC#N)Oc1nc(F)c(Cl)c(N)c1Cl (stereo not drawn) [Compound 2-60]	5 (Level 5: the growth inhibition rate is greater than 85%)	5 (Level 5: the growth inhibition rate is greater than 85%)	5 (Level 5: the growth inhibition rate is greater than 85%)
COC(=O)C(C#N)Oc1nc(F)c(Cl)c(N)c1Cl (stereo not drawn) [Compound 2-61]	5 (Level 5: the growth inhibition rate is greater than 85%)	5 (Level 5: the growth inhibition rate is greater than 85%)	5 (Level 5: the growth inhibition rate is greater than 85%)
COC(=O)C(Oc1nc(F)c(Cl)c(N)c1Cl)c1ccccc1 (stereo not drawn) [Compound 2-62]	5 (Level 5: the growth inhibition rate is greater than 85%)	5 (Level 5: the growth inhibition rate is greater than 85%)	5 (Level 5: the growth inhibition rate is greater than 85%)
COC(=O)C(Cc1ccccc1)Oc1nc(F)c(Cl)c(N)c1Cl (stereo not drawn) [Compound 2-63]	5 (Level 5: the growth inhibition rate is greater than 85%)	5 (Level 5: the growth inhibition rate is greater than 85%)	5 (Level 5: the growth inhibition rate is greater than 85%)
COC(=O)[C@H](Oc1nc(F)c(Cl)c(N)c1Cl)c1cccc(Cl)c1 [Compound 2-64]	5 (Level 5: the growth inhibition rate is greater than 85%)	5 (Level 5: the growth inhibition rate is greater than 85%)	5 (Level 5: the growth inhibition rate is greater than 85%)
COC(=O)[C@@H](Oc1nc(F)c(Cl)c(N)c1Cl)c1cccs1 [Compound 2-65]	5 (Level 5: the growth inhibition rate is greater than 85%)	5 (Level 5: the growth inhibition rate is greater than 85%)	5 (Level 5: the growth inhibition rate is greater than 85%)
COC(=O)[C@@H](Oc1nc(F)c(Cl)c(N)c1Cl)c1nc(Cl)cs1 [Compound 2-67]	5 (Level 5: the growth inhibition rate is greater than 85%)	5 (Level 5: the growth inhibition rate is greater than 85%)	5 (Level 5: the growth inhibition rate is greater than 85%)
COC(=O)[C@H](Oc1nc(F)c(Cl)c(N)c1Cl)c1[nH]ncc1F [Compound 2-68]	5 (Level 5: the growth inhibition rate is greater than 85%)	5 (Level 5: the growth inhibition rate is greater than 85%)	5 (Level 5: the growth inhibition rate is greater than 85%)
CCOC(=O)C(Oc1nc(F)c(Cl)c(N)c1Cl)C1CC1 (stereo not drawn) [Compound 2-383]	5 (Level 5: the growth inhibition rate is greater than 85%)	5 (Level 5: the growth inhibition rate is greater than 85%)	5 (Level 5: the growth inhibition rate is greater than 85%)
CSC(=O)C(Oc1nc(F)c(Cl)c(N)c1Cl)c1ccccc1 (stereo not drawn) [Compound 2-385]	5 (Level 5: the growth inhibition rate is greater than 85%)	5 (Level 5: the growth inhibition rate is greater than 85%)	5 (Level 5: the growth inhibition rate is greater than 85%)
